In publication PMC8208971, “Copper-binding anticancer peptides from the piscidin family: an expanded mechanism that encompasses physical and chemical bilayer disruption” (Scientific Reports, 2021):
Like-named read-outs stand apart in the source and are kept apart here. One block for each molecule: values may come before it. No end group written: not given here.

Columns and labels:
[1] = system: HT1080 (fibrosarcoma) cancer cells; assay: MTS cytotoxicity assay on HT1080 cells; assay type: cell-based
[2] = system: MDA-MB-231 (breast) cancer cells; assay type: cell-based; conditions: for IC50: 24 h
[3] = system: A549 human lung cancer cells; assay: MTT cytotoxicity assay on A549 cells; assay type: cell-based; conditions: for Factor by which metallation with Cu^2+ increases efficacy, A549: from average IC50 values, apo vs Cu^2+-bound
[4] = system: normal MRC-5 (lung) fibroblast cells; assay: Cytotoxicity assay on normal MRC-5 fibroblasts; assay type: cell-based; conditions: 95% confidence interval in parentheses; for apo-P1 given as 50% inhibition at
Excerpt: A549 human lung cancer cells were obtained from ATCC (ATCC CCL-185) and were maintained in Dulbecco’s Modified Eagle’s Medium (DMEM-F12, Lonza, catalog no. 12-719F) supplemented with 10% heat inactivated FBS and 1% Penn-Step. The HT1080 and MRC-5 cells were purchased from ATCC (catalog no. CCL-121 and CCL-171, respectively) and grown in Eagle’s Minimum Essential Medium (ATCC, catalog no. 30-2003TM) that was supplemented with FBS (ATCC, catalog no. 30-2021TM) such that the medium contained 10% FBS. The MDA-MB-231 and HeLa cells were obtained from ATCC (ATCC, catalog no. HTB-26 and CCL-2, respectively) and maintained in DMEM supplemented with 10% FBS. All cell cultures were grown at 37.5 °C in a humidified 5% CO2 atmosphere.
The cytotoxicity assays followed well established procedure, with the details given in the Supplementary Information. The assays were performed in triplicates using 96 well plates Cell viability was calculated using the equation: % viability = [(AT-AB)/(AC-AB)] × 100, where AT is the absorbance of the treatment well, AB is the average background absorbance measured from three wells containing only media, and AC is the absorbance of the […] control well, which received only 100 µL of media and 40 µL of MTT solution (i.e. no peptide). Averages and error bars were calculated as the mean + / − standard deviation based on triplicates. The IC50 values were obtained by fitting the percentage viability (% viability) vs Log (M) concentration of peptides to generate inhibitor dose response curve using the GraphPad Prism software. The curves were fitted using a least-squares minimization method. Individual data points on the graphs are provided as the mean (± standard deviation) from the triplicate % viability values. The GraphPad Prism algorithm converted the logIC50 into IC50 and used the standard error of the mean on the logIC50 to yield the 95% confidence interval for the logIC50 and IC50.
P1-Cu2+ and P3-Cu2+ were assayed on normal MRC-5 (lung) fibroblast cells (ATTC catalog no CCL-171), giving
given in parentheses. […]

[5] = SPR/EIS on tethered bilayer membrane (membrane permeation); conditions: POPC tBLM, Tris 20 mmol/L, 50 mmol/L NaCl, pH 7.4; steps of 0.1 μmol/L, 10 min each
Method: Planar, tethered bilayer membranes (tBLM) supported on gold-coated surfaces (Fig. 2C) were made using 1-palmitoyl-2-oleoyl-sn-glycero-3-phosphocholine (POPC) to mimic cancer cell membranes[80],[81]. Combined, surface plasmon resonance (SPR)/electrical impedance spectroscopy (EIS) measurements (Fig. 3) were conducted by injecting the peptide in small increments while simultaneously observing (1) the kinetics associated with the peptides binding to the bilayer (SPR) and (2) the formation of peptide-lined defects that increase membrane permeation and conductance (EIS). […]
SPR/EIS measurements were carried out on tethered bilayer membrane (tBLM) using a custom-built instrument previously described (Fig. 2B)[123],[124]. […] Several POPC tBLMs were assembled on the gold surfaces using thiolated polyethyleneglycol linker molecules (1,2-di-O-myristyl-3-[ω-mercaptohexa(ethylene oxide) glycerol] (WC14) and β-mercaptoethanol (βME) at a ratio of 70:30 βME:WC14. The tBLMs were equilibrated in Tris buffer (20 mmol/L, 50 mmol/L NaCl, pH 7.4) and allowed to rest until both SPR and EIS signals were stable, before peptide injection. Two types of measurements were done. In the first type (Fig. 3), the peptide concentration was increased gradually, in steps of 0.1 μmol/L, and the SPR/EIS was monitored for 10 min after each addition. […]

[6] = Lipid oxidation, absorbance at 234 nm; conditions: SUVs 0.20 mg/mL, P/L = 1:10 (26 µmol/L), 4 mmol/L phosphate pH 7.8, 24 h exposure to air, triplicates
Excerpt: It has long been known that certain divalent metal ions, especially iron and copper, promote lipid peroxidation (oxidative deterioration of polyunsaturated fatty acids), a mechanism that has been strongly associated with cellular injury and death. Divalent transition-metal ions participate in Fenton-like chemical reactions produces ROS (e.g., hydroxyl radicals, superoxide) that can oxidize double bonds within the membrane. Here, to learn about the possible piscidin/Cu^2+-mediated oxidation of double bonds in lipid bilayers, we used absorbance and mass spectrometry to measure the formation of the oxidation products in small unilamellar vesicles (SUV) constituted of di-linoleoyl-sn-glycero-3-phosphocholine (DLPC) and POPG mixed in a 3:1 molar ratio and prepared at a concentration of 0.50 mg total lipid/mL. We first tested the ability of free Cu^2+ to oxidize the double bonds within the liposomes. Increasing amounts of Cu^2+ for a fixed amount of lipids (expressed as Cu/L, the molar ratio of Cu^2+ to total lipid) were mixed with the SUVs and the absorbance was measured at λ = 234 nm (Fig. 7A) (corresponding to λmax for the conjugated dienes that appear in lipid oxidation products)[92],[93]. Because molecular oxygen (O2) found in the atmosphere readily dissolves in the bilayer, no exogenous oxidant is needed to initiate the oxidation of the double bonds. […]

[7] = system: normal MRC-5 (lung) fibroblast cells; set-up: dose or concentration left out as unconfirmed; conditions: at about; ref Lin et al.1; cited from earlier work
Excerpt: (§1) Tested at up to 10 µ mol/L ...

[8] = system: HGF-1 (gingival) fibroblast cells; conditions: tested at up; no significant inhibitory effects; ref Cheng et al.2; cited from earlier work
Excerpt: as §1

[9] = system: OMF (mucosal) fibroblast cells; conditions: tested at up to 10 mol/L; no significant inhibitory effects; ref Cheng et al.2; cited from earlier work
Excerpt: as §1

[10] = system: HeLa (cervical) cancer cells; assay: MTS cytotoxicity assay on HeLa cells; assay type: cell-based; conditions: 24 h treatment, triplicates, 95% CI in parentheses, for P3 first data point at 0.16 µmol/L not used, holo-forms 1:1 CuCl2

Molecule: [Cl][Cu][Cl] [Free Cu^2+, CuCl2, reference compound]
Cytotoxicity of free Cu^2+ ([1]; CuCl2 tested at up to 30 µmol/L, HT1080 cells, same conditions as the peptides (Fig. S1B)): not cytotoxic

Molecule: FFHHIFRGIVHVGKTIHRLVTG-NH2 [P1, piscidin 1]
Factor by which metallation with Cu^2+ increases efficacy, MDA-MB-231 ([2]; from average IC50 values, apo vs Cu^2+-bound, given as 'up to'): ≈ 2 fold
Factor by which metallation with Cu^2+ increases efficacy, A549 [3]: ≈ 2 fold
IC50 [4]: 8.56 µM
Peptide concentration inducing drop in bilayer resistance (EIS) [5]: 0.2 µmol/L
Lipid oxidation (absorbance peak at 234 nm) [6]: little lipid oxidation
Inhibition of MRC-5 cells [7]: ~ 45%
Survival, HGF-1 [8]: > 90%
Survival, OMF [9]: > 90%

Molecule: FFHHIFRGIVHVGKTIHRLVTG-NH2 [P1-Cu^2+]
IC50 ([1]; MTS, 24 h treatment, triplicates, 95% confidence interval in parentheses, holo-forms metallated 1:1 with CuCl2, read-out: IC50, HT1080): 5.31 µM
IC50 ([3]; MTT, 24 h treatment, triplicates, 95% CI in parentheses, holo-forms 1:1 CuCl2, read-out: IC50, A549): 2.15 µM
IC50 [10]: 2.17 µM
IC50 [4]: 5.97 µM

IC50 [2]: 17.5 µM
Molecule: FIHHIFRGIVHAGRSIGRFLTG-NH2 [P3, piscidin 3]
IC50 ([1]; 24 h): 26 µM
Factor by which metallation with Cu^2+ increases efficacy, HT1080 ([1]; from average IC50 values, apo vs Cu^2+-bound): ≈ 5 fold
IC50 ([3]; 24 h): 21.6 µM
Factor by which metallation with Cu^2+ increases efficacy, A549 [3]: ≈ 7 fold
Peptide concentration inducing drop in bilayer resistance (EIS) [5]: 0.5 µmol/L
Lipid oxidation (absorbance peak at 234 nm) [6]: little lipid oxidation

IC50 [2]: 5.25 µM
Molecule: FIHHIFRGIVHAGRSIGRFLTG-NH2 [P3-Cu^2+]
IC50 ([1]; 24 h): 5.52 µM
IC50 ([3]; 24 h): 2.99 µM
IC50 [4]: 8.62 µM
